Measurements as given in patent publication US20220380347A1, “INHIBITORS OF CYSTEINE PROTEASES AND METHODS OF USE THEREOF” (Pardes Biosciences, Inc., priority 2020, published 2022).
pEC50, pIC50: −log10 of the molar value. Several values for one entry are separate records, joined by “and”; a condition that tells them apart may be missing. Equal entries are not always repeated. Where two headings read alike, the source gives them in different places.

Assays:
HCov OC43 = test: HCoV OC43 cytopathic effect (CPE) assay, CellTiter Glo; type: cell-based, human coronavirus (HCov) OC43
Experimental: Example 238: Evaluation of antiviral activity of compounds against human coronavirus (HCov) 229E and OC43 in the cytopathic effect (CPE) assays
Compounds were assayed using standard methods against multiple coronaviral strains, including HCoV 229E and OC43 strains. The antiviral activity of compounds was calculated based on the protection of the virus-induced CPE at each concentration normalized by the virus control.
Reference compound used was remdesivir; detection reagent: CellTiter Glo.) The CPE were measured by CellTiter Glo following the manufacturer's manual. The antiviral activity of compounds was calculated based on the protection of the virus-induced CPE at each concentration normalized by the virus control.
Cell viability was measured with CellTiter Glo.

229E Mpro = 229E Mpro (Human coronavirus 229E, UniProt P0C6X1); test: 229E Mpro enzymatic assay (standard methods, SARS-CoV2 Mpro assay given as exemplary); type: biochemical, human coronavirus (HCov) 229E
Experimental: Compounds were assayed using standard methods to assess compound activity and IC50. As an exemplary for assessment of the SARS-COV2 Mpro, the C-His6-tagged Mpro (NC_045512) was cloned, expressed in E. coli and purified. The assay buffer contained 20 mM of Tris-HCl (pH 7.3), 100 mM of NaCl, 1 mM of EDTA, 5 mM of TCEP and 0.1% BSA. The final concentrations of the Mpro protein and substrate were 25 nM and 25 μM, respectively, in the Mpro enzymatic assay. The Km of the Mpro substrate for the protease was 13.5 μM.
The compounds were added to an assay plate. […] For no inhibition control (ZPE, zero percent effect), no compound was added.
IC50 values of compounds were calculated with the GraphPad Prism software using the nonlinear regression model of log(inhibitor) vs. response—Variable slope (four parameters). The inhibition activity was calculated using the formula below, IC50 values is calculated using the Inhibition % data.
Inhibition %=[(Sample-Average ZPE)/(Average HPE-Average ZPE)]*100%^#

[1] = target: COVID-19 (nCoV-2019, SARS-CoV2) Mpro (Severe acute respiratory syndrome coronavirus 2, UniProt P0DTD1); test: COVID-19 (nCoV-2019, SARS-CoV2) Mpro enzymatic assay; type: biochemical; settings: 25 nM Mpro, 25 μM substrate; read-out: COVID-19 Mpro IC50
[2] = read-out: OC43 IC50 (uM) MEDIAN, median
[3] = Betacoronavirus 1, OC43, read-out: OC43 IC50 (uM) MEDIAN, median

Chain of 229E Mpro (P0C6X1 2966-3267): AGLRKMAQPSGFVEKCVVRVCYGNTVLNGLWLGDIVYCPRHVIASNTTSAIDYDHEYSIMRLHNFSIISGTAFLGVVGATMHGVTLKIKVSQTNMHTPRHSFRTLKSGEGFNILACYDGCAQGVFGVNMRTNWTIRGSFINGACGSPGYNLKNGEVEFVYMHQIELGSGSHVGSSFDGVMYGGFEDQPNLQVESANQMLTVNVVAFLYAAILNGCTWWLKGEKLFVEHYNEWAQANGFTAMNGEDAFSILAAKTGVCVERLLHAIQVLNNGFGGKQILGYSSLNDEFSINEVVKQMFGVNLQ

Row | SMILES | IC50 (HCov OC43; [2]) | pEC50 (229E Mpro; 229E Mpro EC50) | pIC50 [1] | pEC50 (229E Mpro; read-out: 229E Mpro EC50) | IC50 (HCov OC43; [3])
1 | CC1(C)CN(C#N)[C@@H](C(=O)N(c2ccc(C(C)(C)C)cc2)C(C(=O)NC2CCOCC2)c2cccnc2)CO1 (single isomer, unassigned) [1141 Isomer 4] | 10 to 30 µM | > 5.70 | 4.52 to 5.00 | – | –
2 | CC(C)(C)c1ccc(N(C(=O)[C@H]2C[C@@](C)(O)CN2C#N)C(C(=O)NC2CCOCC2)c2cccnc2)cc1 (single isomer, unassigned) [1142 Isomer 1] | < 2 µM | > 5.70 | > 5.70 | – | –
3 | CC(C)(C)c1ccc(N(C(=O)[C@H]2C[C@@](C)(O)CN2C#N)C(C(=O)NC2CCOCC2)c2cccnc2)cc1 (single isomer, unassigned) [1142 Isomer 2] | 10 to 30 µM | – | 5.00 to 5.70 | > 5.70 | –
4 | CO[C@@H]1C[C@H](C(=O)N(c2ccc(S(F)(F)(F)(F)F)cc2)C(C(=O)N2CCN(C(=O)OC(C)(C)C)C2)c2cccnc2)N(C#N)C1 (single isomer, unassigned) [1148d Isomer 1] | – | > 5.70 | 5.00 to 5.70 | – | < 2 µM
5 | C[C@@]1(O)C[C@H](C(=O)N(c2ccc(S(F)(F)(F)(F)F)cc2)C(C(=O)NC2CCC(F)(F)CC2)c2ccc(F)nc2)N(C#N)C1 (single isomer, unassigned) [1157 Isomer 1] | – | > 5.70 | > 5.70 | – | < 2 µM
6 | C[C@@]1(O)C[C@H](C(=O)N(c2ccc(S(F)(F)(F)(F)F)cc2)C(C(=O)NC2CCC(F)(F)CC2)c2ccc(F)nc2)N(C#N)C1 (single isomer, unassigned) [1157 Isomer 2] | 2 to 10 µM | – | 5.00 to 5.70 | > 5.70 | –
7 | C[C@@]1(O)C[C@H](C(=O)N(c2ccc(S(F)(F)(F)(F)F)cc2)C(C(=O)NC2CCC(F)(F)CC2)c2cccnc2F)N(C#N)C1 (single isomer, unassigned) [1158 Isomer 1] | – | > 5.70 | > 5.70 | – | < 2 µM
8 | C[C@@]1(O)C[C@H](C(=O)N(c2ccc(S(F)(F)(F)(F)F)cc2)C(C(=O)NC2CCC(F)(F)CC2)c2cccnc2F)N(C#N)C1 (single isomer, unassigned) [1158 Isomer 2] | < 2 µM | – | 5.00 to 5.70 | > 5.70 | –
9 | CO[C@@H]1C[C@H](C(=O)N(c2ccc(S(F)(F)(F)(F)F)cc2)C(C(=O)NC2CCOC(C)(C)C2)c2cccnc2)N(C#N)C1 (single isomer, unassigned) [1165 Isomer 1] | – | > 5.70 | > 5.70 | – | < 2 µM
10 | CO[C@@H]1C[C@H](C(=O)N(c2ccc(S(F)(F)(F)(F)F)cc2)C(C(=O)NC2CCOC(C)(C)C2)c2cccnc2)N(C#N)C1 (single isomer, unassigned) [1165 Isomer 2] | 2 to 10 µM | – | 4.52 to 5.00 | > 5.70 | –
11 | CO[C@@H]1C[C@H](C(=O)N(c2ccc(S(F)(F)(F)(F)F)cc2)C(C(=O)Nc2ccc3c(c2)OCCO3)c2cccnc2)N(C#N)C1 (single isomer, unassigned) [1170 Isomer 1] | – | 5.00 to 5.70 | 4.52 to 5.00 | – | 2 to 10 µM
12 | CO[C@@H]1C[C@H](C(=O)N(c2ccc(S(F)(F)(F)(F)F)cc2)C(C(=O)Nc2ccc3c(c2)OCCO3)c2cccnc2)N(C#N)C1 (single isomer, unassigned) [1170 Isomer 2] | < 2 µM | > 5.70 | > 5.70 | – | –
13 | CO[C@@H]1C[C@H](C(=O)N(c2ccc(S(F)(F)(F)(F)F)cc2)C(C(=O)N2CC3(COC3)C2)c2cccnc2)N(C#N)C1 (single isomer, unassigned) [1171 Isomer 1] | < 2 µM | > 5.70 | 4.52 to 5.00 and > 5.70 | – | 2 to 10 µM
14 | CO[C@@H]1C[C@H](C(=O)N(c2ccc(S(F)(F)(F)(F)F)cc2)C(C(=O)N2CCCC3(COC3)C2)c2cccnc2)N(C#N)C1 (single isomer, unassigned) [1175 Isomer 2] | 2 to 10 µM | – | 4.52 to 5.00 | > 5.70 | –
15 | CO[C@@H]1C[C@H](C(=O)N(c2ccc(S(F)(F)(F)(F)F)cc2)C(C(=O)NCC2(C)COC2)c2cccnc2)N(C#N)C1 (single isomer, unassigned) [1176 Isomer 1] | – | > 5.70 | > 5.70 | – | < 2 µM
16 | CO[C@@H]1C[C@H](C(=O)N(c2ccc(S(F)(F)(F)(F)F)cc2)C(C(=O)NCC2(C)COC2)c2cccnc2)N(C#N)C1 (single isomer, unassigned) [1176 Isomer 2] | 2 to 10 µM | – | 4.52 to 5.00 | > 5.70 | –
17 | COc1ccc(NC(=O)C(c2cccnc2)N(C(=O)[C@H]2C[C@@H](OC)CN2C#N)c2ccc(S(F)(F)(F)(F)F)cc2)cn1 (single isomer, unassigned) [1180 Isomer 1] | – | 5.00 to 5.70 | 5.00 to 5.70 | – | 2 to 10 µM
18 | COc1ccc(NC(=O)C(c2cccnc2)N(C(=O)[C@H]2C[C@@H](OC)CN2C#N)c2ccc(S(F)(F)(F)(F)F)cc2)cn1 (single isomer, unassigned) [1180 Isomer 2] | < 2 µM | > 5.70 | > 5.70 | – | –
19 | CO[C@@H]1C[C@H](C(=O)N(c2ccc(S(F)(F)(F)(F)F)cc2)C(C(=O)NC2CC3CCC(C2)O3)c2cccnc2)N(C#N)C1 (single isomer, unassigned) [1187 Isomer 1] | – | > 5.70 | > 5.70 | – | < 2 µM
20 | CO[C@@H]1C[C@H](C(=O)N(c2ccc(S(F)(F)(F)(F)F)cc2)C(C(=O)NC2CC3CCC(C2)O3)c2cccnc2)N(C#N)C1 (single isomer, unassigned) [1187 Isomer 2] | < 2 µM | – | > 5.70 | > 5.70 | –
21 | CO[C@@H]1C[C@H](C(=O)N(c2ccc(S(F)(F)(F)(F)F)cc2)C(C(=O)NCC(C)(C)OC)c2cccnc2)N(C#N)C1 (single isomer, unassigned) [1194 Isomer 1] | – | > 5.70 | > 5.70 | – | < 2 µM
22 | CO[C@@H]1C[C@H](C(=O)N(c2ccc(S(F)(F)(F)(F)F)cc2)C(C(=O)NCC(C)(C)OC)c2cccnc2)N(C#N)C1 (single isomer, unassigned) [1194 Isomer 2] | 2 to 10 µM | – | 4.52 to 5.00 | > 5.70 | –
23 | CO[C@@H]1C[C@H](C(=O)N(c2ccc(S(F)(F)(F)(F)F)cc2)C(C(=O)NCCc2cc(F)cc(F)c2)c2cccnc2)N(C#N)C1 (single isomer, unassigned) [1196 Isomer 1] | – | > 5.70 | 5.00 to 5.70 | – | 2 to 10 µM
24 | CO[C@@H]1C[C@H](C(=O)N(c2ccc(S(F)(F)(F)(F)F)cc2)C(C(=O)NCCc2cc(F)cc(F)c2)c2cccnc2)N(C#N)C1 (single isomer, unassigned) [1196 Isomer 2] | < 2 µM | – | > 5.70 | > 5.70 | –
25 | CO[C@@H]1C[C@H](C(=O)N(c2ccc(S(F)(F)(F)(F)F)cc2)C(C(=O)NCCc2cccc(F)c2)c2cccnc2)N(C#N)C1 (single isomer, unassigned) [1197 Isomer 1] | – | > 5.70 | > 5.70 | – | < 2 µM
26 | CO[C@@H]1C[C@H](C(=O)N(c2ccc(S(F)(F)(F)(F)F)cc2)C(C(=O)NCCc2cccc(F)c2)c2cccnc2)N(C#N)C1 (single isomer, unassigned) [1197 Isomer 2] | 2 to 10 µM | – | 5.00 to 5.70 | > 5.70 | –
27 | CO[C@@H]1C[C@H](C(=O)N(c2ccc(C(C)(C)C)cc2)C(C)(C(=O)NC2CCC(F)(F)CC2)c2cnccn2)N(C#N)C1 (single isomer, unassigned) [1198 Isomer 1] | – | 5.00 to 5.70 | 4.52 to 5.00 | – | 2 to 10 µM
